Reference: ChEMBL document CHEMBL6074680, “Structure-Based Discovery of a Series of Covalent, Orally Bioavailable, and Selective BFL1 Inhibitors” (J Med Chem, 2024)
pEC50, pIC50: −log10 of the molar value. Activity calls are given as the source filed them. The rule behind the calls is not given here.

How the values were obtained:
KARPAS-422 [1] = experiment: Antiproliferative activity against BFL1 null human KARPAS-422 cells assessed as cell viability incubated for 24 hrs by celltiter-glo assay; type: functional, cell-based
SU-DHL-1 [2] = experiment: Induction of apoptosis in human SU-DHL-1 cells assessed as caspase activation in presence of AZD5991 incubated for 6 hrs by caspaseGlo 3/7 reagent based assay; type: functional, cell-based; details: SU-DHL-1, 6 h
SU-DHL-1 [3] = experiment: Antiproliferative activity against human SU-DHL-1 cells assessed as cell survival upto 100 uM incubated for 24 hrs by celltiter-glo assay; type: functional, cell-based
Cannabinoid receptor 1 = Cannabinoid receptor 1 (Homo sapiens, UniProt P21554); experiment: Inhibition of human CB1 receptor
Cannabinoid receptor 1, sequence (P21554 whole entry): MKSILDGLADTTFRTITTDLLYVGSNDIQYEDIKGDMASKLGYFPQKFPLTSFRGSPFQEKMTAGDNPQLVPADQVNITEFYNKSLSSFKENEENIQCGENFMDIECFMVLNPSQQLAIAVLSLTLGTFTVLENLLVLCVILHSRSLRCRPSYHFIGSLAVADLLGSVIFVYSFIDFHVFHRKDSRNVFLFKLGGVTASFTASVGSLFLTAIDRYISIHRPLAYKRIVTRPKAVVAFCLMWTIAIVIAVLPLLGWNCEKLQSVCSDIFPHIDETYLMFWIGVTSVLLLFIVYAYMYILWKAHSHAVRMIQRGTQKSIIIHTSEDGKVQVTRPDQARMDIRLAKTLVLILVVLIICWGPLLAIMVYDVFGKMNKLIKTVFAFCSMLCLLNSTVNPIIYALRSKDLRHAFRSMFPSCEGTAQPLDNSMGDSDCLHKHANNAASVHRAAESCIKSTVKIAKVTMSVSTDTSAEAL

Mus musculus [4] = experiment: Effect on BFL1 level in po dosed SCID mouse measured for 6 hrs by MSD assay; type: functional, organism-based; details: dose 100-300 mg/kg
Mus musculus [5] = experiment: Effect on cleaved caspase 3 level in po dosed SCID mouse measured for 6 hrs by MSD assay; type: functional, organism-based; details: dose 100-300 mg/kg
OCI-Ly10 = experiment: Induction of apoptosis in human OCI-Ly10 cells assessed as caspase activation incubated for 6 hrs by caspaseGlo 3/7 reagent based assay; type: functional, cell-based
[6] = molecular target: Induced myeloid leukemia cell differentiation protein Mcl-1 (Homo sapiens, UniProt Q07820); experiment: Inhibition of MCL1 (unknown origin) by FRET assay
Induced myeloid leukemia cell differentiation protein Mcl-1, sequence (Q07820 whole entry): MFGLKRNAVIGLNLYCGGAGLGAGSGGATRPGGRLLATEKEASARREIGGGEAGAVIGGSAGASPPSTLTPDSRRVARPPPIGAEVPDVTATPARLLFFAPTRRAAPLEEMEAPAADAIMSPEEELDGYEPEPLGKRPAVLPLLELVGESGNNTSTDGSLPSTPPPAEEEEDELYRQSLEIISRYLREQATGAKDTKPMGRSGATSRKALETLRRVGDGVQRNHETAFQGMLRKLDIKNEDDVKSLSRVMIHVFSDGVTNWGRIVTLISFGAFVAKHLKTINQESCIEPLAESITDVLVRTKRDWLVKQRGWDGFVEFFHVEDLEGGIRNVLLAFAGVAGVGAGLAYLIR

SU-DHL-1 [7] = experiment: Antiproliferative activity against human SU-DHL-1 cells assessed as cell viability incubated for 24 hrs by celltiter-glo assay; type: functional, cell-based; details: SU-DHL-1, 24 h
KARPAS-422 [8] = experiment: Antiproliferative activity against human KARPAS-422 cells assessed as cell survival at 10 uM incubated for 24 hrs by celltiter-glo assay; type: functional, cell-based

With `C=CC(=O)N(c1ccc(O[C@@H]2CC[C@@H](N)C2)c(F)c1)[C@@H](C)c1ccc(Cl)cc1` the Activity (KARPAS-422 [1]) was “Active”, the pEC50 (SU-DHL-1 [2]) was 6.46 and the Activity (SU-DHL-1 [3]) was “Active”. For the same compound, the pIC50 (Cannabinoid receptor 1) was less than 4.00, the Activity (Mus musculus [4]) was “Dose-dependent-effect” and the Activity (Mus musculus [5]) was “Dose-dependent-effect”. For the same compound, the Activity (OCI-Ly10) was “Active”, the pIC50 [6] was less than 4.00 and the pEC50 (SU-DHL-1 [7]) was 6.60. For the same compound, the Activity (KARPAS-422 [8]) was “inactive”.
